Assay results: patent publication US20150031668A1, “CHROMAN DERIVATIVES AS TRPM8 INHIBITORS” (AMGEN INC., priority 2013, published 2015)

Molecular target: T1, human TRPM8 (Homo sapiens, UniProt Q7Z2W7)
T1 construct: expressed in transfected cells; host or cells: Chinese hamster ovary (CHO) cells, T-REx tetracycline-inducible expression system (Invitrogen); co-transfected with pcDNA3.1 aequorin
Experiment: Luminescence readout assay for measuring intracellular calcium (aequorin, CHO cells expressing human TRPM8; icilin, L-menthol or cold activation)
Assay type: cell-based
Settings: not given
How it was run: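 Activation was by 1 μM icilin, 100 μM L-menthol (test compound 2.5 min ahead) or cold buffer below 10° C (compound 1 min ahead). Calcium rise measured as aequorin luminescence in CHO cells with tetracycline-inducible human TRPM8.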

T1 sequence (Q7Z2W7 whole entry): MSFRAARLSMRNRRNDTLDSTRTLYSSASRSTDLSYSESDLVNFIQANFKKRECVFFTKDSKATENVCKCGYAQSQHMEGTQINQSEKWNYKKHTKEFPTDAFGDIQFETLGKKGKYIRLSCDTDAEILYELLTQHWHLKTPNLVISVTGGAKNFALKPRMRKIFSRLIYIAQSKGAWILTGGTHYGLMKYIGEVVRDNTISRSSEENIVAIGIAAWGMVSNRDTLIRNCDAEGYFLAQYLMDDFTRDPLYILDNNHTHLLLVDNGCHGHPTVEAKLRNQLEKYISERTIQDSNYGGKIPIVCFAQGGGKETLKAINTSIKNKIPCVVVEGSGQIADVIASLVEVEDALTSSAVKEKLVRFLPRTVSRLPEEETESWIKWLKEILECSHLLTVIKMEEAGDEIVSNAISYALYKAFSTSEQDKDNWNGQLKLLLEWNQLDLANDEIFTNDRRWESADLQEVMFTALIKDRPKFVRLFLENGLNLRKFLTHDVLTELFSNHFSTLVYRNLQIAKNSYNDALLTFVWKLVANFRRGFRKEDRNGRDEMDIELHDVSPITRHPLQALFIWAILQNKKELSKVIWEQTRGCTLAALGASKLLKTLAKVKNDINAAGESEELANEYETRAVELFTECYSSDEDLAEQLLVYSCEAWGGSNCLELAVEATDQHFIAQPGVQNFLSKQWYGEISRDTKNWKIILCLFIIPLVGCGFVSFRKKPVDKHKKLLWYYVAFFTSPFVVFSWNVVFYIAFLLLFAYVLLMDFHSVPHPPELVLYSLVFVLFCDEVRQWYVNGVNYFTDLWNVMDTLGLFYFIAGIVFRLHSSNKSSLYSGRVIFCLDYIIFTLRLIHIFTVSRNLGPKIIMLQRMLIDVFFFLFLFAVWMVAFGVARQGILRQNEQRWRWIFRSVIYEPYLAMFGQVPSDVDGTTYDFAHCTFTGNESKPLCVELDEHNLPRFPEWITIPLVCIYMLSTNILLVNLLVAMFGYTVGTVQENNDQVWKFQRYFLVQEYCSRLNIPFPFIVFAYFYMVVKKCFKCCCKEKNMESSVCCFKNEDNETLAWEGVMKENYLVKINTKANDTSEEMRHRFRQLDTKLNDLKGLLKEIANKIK

With `O=C1CCN(C(=O)N[C@]2(c3ccc(OC(F)(F)F)c(F)c3)CCOc3cccnc32)CC1` [Example 103, (S)-N-(4-(3-fluoro-4-(trifluoromethoxy)phenyl)-3,4-dihydro-2H-pyrano[3,2-b]pyridin-4-yl)-4-oxopiperidine-1-carboxamide] the IC50 was 278 nM.

Same assay, conditions: CHO cells expressing human TRPM8, icilin activation (1 μM), aequorin luminescence; read-out: hTRPM8 IC50

First: O=C(Nc1cccnc1)N[C@]1(c2ccc(OC(F)(F)F)c(F)c2)CCOc2cccnc21 [Example 92, (S)-1-(4-(3-fluoro-4-(trifluoromethoxy)phenyl)-3,4-dihydro-2H-pyrano[3,2-b]pyridin-4-yl)-3-(pyridin-3-yl)urea]
Second: O=C(Nc1ccncc1)N[C@]1(c2ccc(OC(F)(F)F)c(F)c2)CCOc2cccnc21 [Example 96, (S)-1-(4-(3-fluoro-4-(trifluoromethoxy)phenyl)-3,4-dihydro-2H-pyrano[3,2-b]pyridin-4-yl)-3-(pyridin-4-yl)urea]
The IC50 of the first is 9-fold higher: 54 nM for the first, 6 nM for the second.

First: O=C(Nc1cccnc1Br)N[C@]1(c2ccc(OC(F)(F)F)c(F)c2)CCOc2cccnc21 [Example 93, (S)-1-(2-bromopyridin-3-yl)-3-(4-(3-fluoro-4-(trifluoromethoxy)phenyl)-3,4-dihydro-2H-pyrano[3,2-b]pyridin-4-yl)urea]
Second: O=C(Nc1cnccc1Br)N[C@]1(c2ccc(OC(F)(F)F)c(F)c2)CCOc2cccnc21 [Example 94, (S)-1-(4-bromopyridin-3-yl)-3-(4-(3-fluoro-4-(trifluoromethoxy)phenyl)-3,4-dihydro-2H-pyrano[3,2-b]pyridin-4-yl)urea]
The IC50 of the first is 10-fold lower: 22 nM for the first, 230 nM for the second.

First: O=C(Nc1ccccn1)N[C@]1(c2ccc(OC(F)(F)F)c(F)c2)CCOc2cccnc21 [Example 95, (S)-1-(4-(3-fluoro-4-(trifluoromethoxy)phenyl)-3,4-dihydro-2H-pyrano[3,2-b]pyridin-4-yl)-3-(pyridin-2-yl)urea]
Second: O=C(Nc1ccccc1C(=O)O)N[C@]1(c2ccc(OC(F)(F)F)c(F)c2)CCOc2cccnc21 [Example 106, (S)-2-(3-(4-(3-fluoro-4-(trifluoromethoxy)phenyl)-3,4-dihydro-2H-pyrano[3,2-b]pyridin-4-yl)ureido)benzoic acid]
The IC50 of the first is 2.4-fold higher: 94 nM for the first, 39 nM for the second. The second is the more potent here.

`O=C(Nc1cc(F)c(O)c(F)c1)N[C@]1(c2ccc(OC(F)(F)F)c(F)c2)CCOc2cccnc21` [Example 97, (S)-1-(3,5-difluoro-4-hydroxyphenyl)-3-(4-(3-fluoro-4-(trifluoromethoxy)phenyl)-3,4-dihydro-2H-pyrano[3,2-b]pyridin-4-yl)urea] and `O=C(Nc1cccc(C(=O)O)c1)N[C@]1(c2ccc(OC(F)(F)F)c(F)c2)CCOc2cccnc21` [Example 107, (S)-3-(3-(4-(3-fluoro-4-(trifluoromethoxy)phenyl)-3,4-dihydro-2H-pyrano[3,2-b]pyridin-4-yl)ureido)benzoic acid] are within 1.5-fold of each other in IC50: 159 nM for the first, 150 nM for the second.

First: O=C(N[C@]1(c2ccc(OC(F)(F)F)c(F)c2)CCOc2cccnc21)N1CCCCC1 [Example 98, (S)-N-(4-(3-fluoro-4-(trifluoromethoxy)phenyl)-3,4-dihydro-2H-pyrano[3,2-b]pyridin-4-yl)piperidine-1-carboxamide]
Second: O=C(N[C@]1(c2ccc(OC(F)(F)F)c(F)c2)CCOc2cccnc21)N1CCCC1 [Example 104, (S)-N-(4-(3-fluoro-4-(trifluoromethoxy)phenyl)-3,4-dihydro-2H-pyrano[3,2-b]pyridin-4-yl)pyrrolidine-1-carboxamide]
The IC50 of the first is 3.7-fold lower: 23 nM for the first, 85 nM for the second.

Going from `COC(=O)C1CCN(C(=O)N[C@]2(c3ccc(OC(F)(F)F)c(F)c3)CCOc3cccnc32)CC1` [Example 99, (S)-methyl 1-((4-(3-fluoro-4-(trifluoromethoxy)phenyl)-3,4-dihydro-2H-pyrano[3,2-b]pyridin-4-yl)carbamoyl)piperidine-4-carboxylate] to `O=C(O)C1CCN(C(=O)N[C@]2(c3ccc(OC(F)(F)F)c(F)c3)CCOc3cccnc32)CC1` [Example 110], the IC50 rises from 106 nM to 585 nM (5.5-fold).

First: O=C(N[C@]1(c2ccc(OC(F)(F)F)c(F)c2)CCOc2cccnc21)N1CCC(F)(F)CC1 [Example 100]
Second: O=C(N[C@]1(c2ccc(OC(F)(F)F)c(F)c2)CCOc2cccnc21)N1CCC1 [Example 105, (S)-N-(4-(3-fluoro-4-(trifluoromethoxy)phenyl)-3,4-dihydro-2H-pyrano[3,2-b]pyridin-4-yl)azetidine-1-carboxamide]
The IC50 of the first is 2.2-fold lower: 187 nM for the first, 404 nM for the second. The first is the more potent here.

Going from `O=C(N[C@]1(c2ccc(OC(F)(F)F)c(F)c2)CCOc2cccnc21)N1CCOCC1` [Example 101, (S)-N-(4-(3-fluoro-4-(trifluoromethoxy)phenyl)-3,4-dihydro-2H-pyrano[3,2-b]pyridin-4-yl)morpholine-4-carboxamide] to `O=C(N[C@]1(c2ccc(OC(F)(F)F)c(F)c2)CCOc2cccnc21)N1CCC(O)CC1` [Example 102, (S)-N-(4-(3-fluoro-4-(trifluoromethoxy)phenyl)-3,4-dihydro-2H-pyrano[3,2-b]pyridin-4-yl)-4-hydroxypiperidine-1-carboxamide], the IC50 falls from 760 nM to 218 nM (3.5-fold). The second is the more potent here.

Compared with `O=C(Nc1ccc(C(=O)O)cc1)N[C@]1(c2ccc(OC(F)(F)F)c(F)c2)CCOc2cccnc21` [Example 108, (S)-4-(3-(4-(3-fluoro-4-(trifluoromethoxy)phenyl)-3,4-dihydro-2H-pyrano[3,2-b]pyridin-4-yl)ureido)benzoic acid], `O=C(Nc1ccc(-c2noc(=O)[nH]2)nc1)N[C@]1(c2ccc(OC(F)(F)F)c(F)c2)CCOc2cccnc21` [Example 109, (S)-1-(4-(3-fluoro-4-(trifluoromethoxy)phenyl)-3,4-dihydro-2H-pyrano[3,2-b]pyridin-4-yl)-3-(6-(5-oxo-4,5-dihydro-1,2,4-oxadiazol-3-yl)pyridin-3-yl)urea] is 7.9-fold higher in IC50: 386 nM for the first, 3060 nM for the second.

Going from `N#CCc1ccc([C@@]2(NC(=O)c3ccc(F)cc3)CCOc3cccnc32)cc1` [Example 111, (S)—N-(4-(4-(cyanomethyl)phenyl)-3,4-dihydro-2H-pyrano[3,2-b]pyridin-4-yl)-4-fluorobenzamide] to `O=C(N[C@]1(c2ccc(-c3ccccc3O)cc2)CCOc2cccnc21)c1ccc(F)cc1` [Example 120, (S)-4-fluoro-N-(4-(2′-hydroxy-[1,1′-biphenyl]-4-yl)-3,4-dihydro-2H-pyrano[3,2-b]pyridin-4-yl)benzamide], the IC50 falls from 1520 nM to 524 nM (2.9-fold).

First: O=C(N[C@]1(c2ccc(-c3ccccn3)cc2)CCOc2cccnc21)c1ccc(F)cc1 [Example 112, (S)-4-fluoro-N-(4-(4-(pyridin-2-yl)phenyl)-3,4-dihydro-2H-pyrano[3,2-b]pyridin-4-yl)benzamide]
Second: O=C(N[C@]1(c2ccc(-c3ccccc3)cc2)CCOc2cccnc21)c1ccc(F)cc1 [Example 113, (S)—N-(4-([1,1′-biphenyl]-4-yl)-3,4-dihydro-2H-pyrano[3,2-b]pyridin-4-yl)-4-fluorobenzamide]
The IC50 of the first is 4.4-fold higher: 233 nM for the first, 53 nM for the second. The second is the more potent here.

Compared with `O=C(N[C@]1(c2ccc(-c3ccc(F)cc3)cc2)CCOc2cccnc21)c1ccc(F)cc1` [Example 114, (S)-4-fluoro-N-(4-(4′-fluoro-[1,1′-biphenyl]-4-yl)-3,4-dihydro-2H-pyrano[3,2-b]pyridin-4-yl)benzamide], `CS(=O)(=O)c1ccc(-c2ccc([C@@]3(NC(=O)c4ccc(F)cc4)CCOc4cccnc43)cc2)cc1` [Example 119, (S)-4-fluoro-N-(4-(4′-(methylsulfonyl)-[1,1′-biphenyl]-4-yl)-3,4-dihydro-2H-pyrano[3,2-b]pyridin-4-yl)benzamide] is 18-fold higher in IC50: 50 nM for the first, 879 nM for the second. The first is the more potent here.

`O=C(N[C@]1(c2ccc(-c3cccnc3)cc2)CCOc2cccnc21)c1ccc(F)cc1` [Example 115, (S)-4-fluoro-N-(4-(4-(pyridin-3-yl)phenyl)-3,4-dihydro-2H-pyrano[3,2-b]pyridin-4-yl)benzamide] and `O=C(N[C@]1(c2ccc(-c3ccncc3)cc2)CCOc2cccnc21)c1ccc(F)cc1` [Example 116, (S)-4-fluoro-N-(4-(4-(pyridin-4-yl)phenyl)-3,4-dihydro-2H-pyrano[3,2-b]pyridin-4-yl)benzamide] are within 1.5-fold of each other in IC50: 341 nM for the first, 284 nM for the second.

First: CCOc1cnc(-c2ccc([C@@]3(NC(=O)c4ccc(F)cc4)CCOc4cccnc43)cc2)cn1 [Example 117, (S)-N-(4-(4-(5-ethoxypyrazin-2-yl)phenyl)-3,4-dihydro-2H-pyrano[3,2-b]pyridin-4-yl)-4-fluorobenzamide]
Second: O=C(N[C@]1(c2ccc(-c3cncnc3)cc2)CCOc2cccnc21)c1ccc(F)cc1 [Example 124, (S)-4-fluoro-N-(4-(4-(pyrimidin-5-yl)phenyl)-3,4-dihydro-2H-pyrano[3,2-b]pyridin-4-yl)benzamide]
The IC50 of the first is 19-fold lower: 73.7 nM for the first, 1410 nM for the second.

`O=C(N[C@]1(c2ccc(-c3cccc(CO)c3)cc2)CCOc2cccnc21)c1ccc(F)cc1` [Example 118, (S)-4-fluoro-N-(4-(3′-(hydroxymethyl)-[1,1′-biphenyl]-4-yl)-3,4-dihydro-2H-pyrano[3,2-b]pyridin-4-yl)benzamide] and `O=C(N[C@]1(c2ccc(-c3ccc(F)c(CO)c3)cc2)CCOc2cccnc21)c1ccc(F)cc1` [Example 122, (S)-4-fluoro-N-(4-(4′-fluoro-3′-(hydroxymethyl)-[1,1-biphenyl]-4-yl)-3,4-dihydro-2H-pyrano[3,2-b]pyridin-4-yl)benzamide] are within 1.5-fold of each other in IC50: 2170 nM for the first, 1520 nM for the second.

Compared with `CC(=O)Nc1ccc(-c2ccc([C@@]3(NC(=O)c4ccc(F)cc4)CCOc4cccnc43)cc2)cc1` [Example 121, (S)-N-(4-(4′-acetamido-[1,1′-biphenyl]-4-yl)-3,4-dihydro-2H-pyrano[3,2-b]pyridin-4-yl)-4-fluorobenzamide], `NC(=O)c1cc(-c2ccc([C@@]3(NC(=O)c4ccc(F)cc4)CCOc4cccnc43)cc2)ccc1Cl` [Example 123, (S)-4-chloro-4′-(4-(4-fluorobenzamido)-3,4-dihydro-2H-pyrano[3,2-b]pyridin-4-yl)-[1,1′-biphenyl]-3-carboxamide] is 2.8-fold higher in IC50: 1250 nM for the first, 3560 nM for the second.

Molecule `Cc1noc(C)c1-c1ccc([C@@]2(NC(=O)c3ccc(F)cc3)CCOc3cccnc32)cc1` [Example 125, (S)-N-(4-(4-(3,5-dimethylisoxazol-4-yl)phenyl)-3,4-dihydro-2H-pyrano[3,2-b]pyridin-4-yl)-4-fluorobenzamide] has an IC50 of 429 nM.
